From patent US20230263757A1, “DISINFECTING WIPE KIT FOR CENTRAL VENOUS ACCESS DEVICES” (SterileCare Inc., priority 2022, published 2023)
Where a name gives a salt, the structure may show the parent alone. Read-outs that look alike come from different tables or passages of the source.

What was measured:
S. epidermidis SK9 [1] = assay: MIC, micro broth dilution; type: cell-based, Staphylococcus epidermidis; settings: alone
Experimental: (§1) An assay was made using a minimum inhibitory concentration (MIC) and minimum bactericidal concentration (MBC) and minimum fungicidal concentration (MFC) determination. The MIC was determined by the micro broth dilution method in 96-well plates. Serial two-fold dilutions of tetrasodium EDTA (from 2% to 0.015%), ethanol (from 50% to 0.1%) and chlorhexidine HCl (from 100 μg/mL to 0.025 μg/mL) were prepared in MH broth with a final volume of 90 μL per well. A 10 μL containing 1×10^5 bacterial cells or 2×10^3 fungal cells were added to each well. The inoculated plates were covered with a lid, sealed with Parafilm, and incubated for 24 h at 37° C. with slight rocking on a tilting platform shaker. After incubation, the optical density at 600 nm (OD 600) of the cultures in each well was measured using an xMark™ Microplate Absorbance Spectrophotometer (Bio-Rad). […] MBCs and MFCs were determined by transferring 100 μL from each well with no apparent growth onto appropriate agar plates, followed by incubation for 24 h at 37° C.

E. coli SK2 [2] = assay: MIC, micro broth dilution; type: cell-based, Escherichia coli; settings: alone
Experimental: as §1

S. epidermidis SK9 [3] = assay: Checkerboard titration, FICI; type: cell-based, Staphylococcus epidermidis; settings: for concentration in combination: EDTA + ethanol
Experimental: (§2) A fourth composition and solution included tetrasodium EDTA with ethanol or chlorhexidine HCl. This fourth composition and solution were created using checkerboard titration methods using micro broth dilution in 96-well microtiter plates. The concentrations of antimicrobials used were based on previously determined MIC values. Briefly, 200 μL, of two-fold dilutions of tetrasodium EDTA and ethanol or chlorhexidine HCl were prepared in MH or MH II broth with standardized cell suspension. […] Microtiter plates were incubated at 37° C. for 24 h, and the results were analyzed. Each test was performed in duplicate and included a growth control without adding any antimicrobials.

MRSA ON184 [4] = assay: Checkerboard titration, FICI; type: cell-based, S. aureus; settings: for concentration in combination: EDTA + ethanol
Experimental: as §2

E. coli SK2 [5] = assay: Checkerboard, FMCI; type: cell-based, Escherichia coli; settings: for microbicidal concentration in combination: EDTA + ethanol
Experimental: as §1, §2

C. albicans ON47 [6] = assay: Checkerboard, FMCI; type: cell-based, Candida albicans; settings: for microbicidal concentration in combination: EDTA + ethanol
Experimental: as §1, §2

Candida albicans SK4b = assay: MBEC assay, 48-h biofilm, 24 h exposure; type: cell-based
Experimental: (§3) A biofilm cultivation cell composition was provided. This fifth composition was created using an MBEC Assay® biofilm inoculator, consisting of a polystyrene lid with 96 downward-protruding pegs and a corresponding base used to grow biofilms. A standardized inoculum was diluted in an appropriate biofilm growth medium to achieve a viable cell count of 1.5×10^6 CFU/mL of bacterial cells or 5×10^5 CFU/mL of fungal cells. Then, 150 μL of this inoculum was transferred into each appropriate well, and the peg lids were inserted into the microtiter plates. The plates were sealed with Parafilm and were incubated at optimum temperature for 48 h with slight rocking for bacteria and shaking at 200 rpm for fungal strains. After incubation, the peg lid was removed from the base and rinsed twice with sterile phosphate-buffered saline (PBS) for 2 min to remove loosely attached non-sessile cells. Before the antimicrobial challenge, the pegs in column 1 (n=8) were considered the biofilm growth control; these pegs were removed from the lids, placed into 200 μL of recovery medium, and analyzed for starting biofilm cell numbers as described below. The rinsed pegs were placed into new 96-well plates containing two-fold dilutions of antimicrobials such as tetrasodium EDTA (4%-0.0125%), ethanol (100%-0.2%), and chlorhexidine HCl (100 μg/mL-0.4 μg/mL) in 200 μL of suitable biofilm growth medium per well and incubated at optimum temperature for 24 h. After the antimicrobial challenge, the pegs were rinsed twice with sterile PBS for 2 min and placed into a new 96-well plate containing 200 μL of recovery medium. The recovery plates were sealed with Parafilm, and biofilm cells were dislodged from the pegs by sonication for 30 min with a Branson 3510 bath sonicator. The biofilm cells in the recovery medium were serially diluted, and a drop dilution assay was performed to enumerate the viable cells. MBEC values were determined as the minimum concentration of antimicrobials that yielded a viable cell count at or lower than the 125 CFU/mL detection limit.

Escherichia coli SK2 [7] = assay: MBEC assay, 48-h biofilm, 24 h exposure; type: cell-based
Experimental: as §3

Proteus mirabilis ON153 [8] = assay: MBEC assay, 48-h biofilm, 24 h exposure; type: cell-based
Experimental: as §3

[9] = system: Pseudomonas aeruginosa SK1; assay: MBEC assay, 48-h biofilm, 24 h exposure; type: cell-based
Experimental: as §3

[10] = system: Staphylococcus aureus ON89; assay: MBEC assay, 48-h biofilm, 24 h exposure; type: cell-based
Experimental: as §3

[11] = system: Staphylococcus epidermidis SK9; assay: MBEC assay, 48-h biofilm, 24 h exposure; type: cell-based
Experimental: as §3

MRSA ON184 [12] = assay: MBEC assay, 48-h biofilm, 24 h exposure; type: cell-based, S. aureus
Experimental: as §3

C. albicans ON47 [13] = assay: MBEC assay, 48-h biofilm, 24 h exposure; type: cell-based, Candida albicans
Experimental: as §3

MRSA ON184 [14] = assay: FBEC index, checkerboard on biofilms; type: cell-based, S. aureus; settings: for biofilm eradication concentration in combination (FBEC): EDTA + ethanol
Experimental: (§4) In step (4), microtiter plates are incubated at 37° C. for 24 h. then (6), after incubation, the bacterial and fungal cells were dislodged from the pegs into the recovery medium described above.
(§5) Three 10-μL aliquots, for a total of 30 μL from each well of recovery medium, were spotted on MH agar plates and incubated for 24 h at 37° C. […] The FBEC determination is a modification of the FICI.

Proteus mirabilis ON153 [15] = assay: FBEC index, checkerboard on biofilms; type: cell-based; settings: for biofilm eradication concentration in combination (FBEC): EDTA + ethanol
Experimental: as §4, §5

Escherichia coli SK2 [16] = assay: FBEC index, checkerboard on biofilms; type: cell-based; settings: for biofilm eradication concentration in combination (FBEC): EDTA + ethanol
Experimental: as §4, §5

[17] = system: 48-h-old biofilms of all of the test organisms; assay: Rapid biofilm eradication, 2-h exposure; type: cell-based; settings: two h of exposure; preformed biofilms
Experimental: Determining rapid biofilm eradication by tetrasodium EDTA, ethanol, and chlorhexidine HCl alone and in combination was performed. After biofilm formation, control pegs (n=6) were removed and analyzed to determine the starting biofilm cell numbers via the drop dilution method. The 48-h old biofilms on the pegs were exposed to different concentrations of test antimicrobials, dissolved in an appropriate growth medium, for two h to evaluate their efficacy alone and in combination. Antimicrobial solutions tested against each organism included each agent alone at the MBEC, double combinations at the FBEC, and triple combinations ranging from 5 to 20% ethanol, 2.5-5 μg/mL chlorhexidine HCl and 1-3% tetrasodium EDTA. Following treatment, pegs were washed twice with sterile PBS, and the biofilm cells were dislodged into recovery medium and enumerated as described above.
The method for rapid biofilm eradication ability of test antimicrobials alone and in combination against 48-h-old biofilms within two h exposure time included (1) choosing different concentrations of test antimicrobials to assess their potency in eradicating preformed biofilms of study organisms within two h. Then (2) the quantitative recovery from biofilms following exposure to the antimicrobial solutions for bacterial strains (FIGS. 9A-9B) and fungal strains (FIG. 5) was evaluated.

Row | Structure (SMILES) | MIC (S. epidermidis SK9 [1]) [% w/v] | MIC (E. coli SK2 [2]) [% w/v] | concentration in combination (S. epidermidis SK9 [3]) [% w/v] | concentration in combination (MRSA ON184 [4]) [% w/v] | microbicidal concentration in combination (E. coli SK2 [5]) [% w/v] | microbicidal concentration in combination (C. albicans ON47 [6]) [% w/v] | MBEC (Candida albicans SK4b) | MBEC (Escherichia coli SK2 [7]) | MBEC (Proteus mirabilis ON153 [8]) | MBEC [9] | MBEC [10] | MBEC [11] | MBEC (MRSA ON184 [12]) | MBEC (C. albicans ON47 [13]) | biofilm eradication concentration in combination (FBEC) (MRSA ON184 [14]) [% w/v] | biofilm eradication concentration in combination (FBEC) (Proteus mirabilis ON153 [15]) [% w/v] | biofilm eradication concentration in combination (FBEC) (Escherichia coli SK2 [16]) [% w/v] | biofilm eradication at the MBEC alone [17] | also measured
1 | CCO [Ethanol, ethanol] | 6.25 | 12.5 | 0.4 | 0.4 | 6.25 | 3.125 | 12.5 % w/v | 12.5 % w/v | 50 % w/v | 12.5 % w/v | 12.5 % w/v | 12.5 % w/v | 12.5 % w/v | 12.5 % w/v | 1.6 | 6.25 | 1.6 | failed to eradicate | –
2 | O=C([O-])CN(CCN(CC(=O)[O-])CC(=O)[O-])CC(=O)[O-].[Na+].[Na+].[Na+].[Na+] [EDTA, tetrasodium EDTA] | 0.063 | 0.5 | 0.015 | 0.015 | 0.25 | 0.25 | 1 % w/v | 2 % w/v | 4 % w/v | 4 % w/v | 4 % w/v | 2 % w/v | 2 % w/v | 1 % w/v | 0.063 | 0.125 | 0.125 | failed to eradicate | EDTA concentration in combination (S. epidermidis SK9 [3]; EDTA + chlorhexidine HCl): 0.015 % w/v; EDTA concentration in combination (MRSA ON184 [4]; EDTA + chlorhexidine HCl): 0.008 % w/v; EDTA microbicidal concentration in combination (E. coli SK2 [5]; EDTA + chlorhexidine HCl): 0.015 % w/v; EDTA microbicidal concentration in combination (C. albicans ON47 [6]; EDTA + chlorhexidine HCl): 0.031 % w/v; EDTA biofilm eradication concentration in combination (FBEC) (MRSA ON184 [14]; EDTA + chlorhexidine HCl): 0.031 % w/v; EDTA biofilm eradication concentration in combination (FBEC) (Proteus mirabilis ON153 [15]; EDTA + chlorhexidine HCl): 0.125 % w/v; EDTA biofilm eradication concentration in combination (FBEC) (Escherichia coli SK2 [16]; EDTA + chlorhexidine HCl): 0.031 % w/v
3 | [H]/N=C(\N/C(=N/[H])NCCCCCCNC(=N)NC(=N)Nc1ccc(Cl)cc1)Nc1ccc(Cl)cc1 [Chlorhexidine HCl, 1,6-bis(4′-chlorophenylbiguanide) hexane] | – | – | – | – | – | – | 50 µg/mL | 50 µg/mL | 100 µg/mL | 100 µg/mL | 100 µg/mL | 25 µg/mL | 50 µg/mL | 25 µg/mL | – | – | – | failed to eradicate | MIC (S. epidermidis SK9 [1]; Staphylococcus epidermidis, read-out: MIC): 0.1 µg/mL; MIC (E. coli SK2 [2]; Escherichia coli, read-out: MIC): 0.4 µg/mL; Chlorhexidine HCl concentration in combination (S. epidermidis SK9 [3]; EDTA + chlorhexidine HCl): 0.025 µg/mL; Chlorhexidine HCl concentration in combination (MRSA ON184 [4]; EDTA + chlorhexidine HCl): 0.2 µg/mL; Chlorhexidine HCl microbicidal concentration in combination (E. coli SK2 [5]; EDTA + chlorhexidine HCl): 0.2 µg/mL; Chlorhexidine HCl microbicidal concentration in combination (C. albicans ON47 [6]; EDTA + chlorhexidine HCl): 1.6 µg/mL; Chlorhexidine HCl biofilm eradication concentration in combination (FBEC) (MRSA ON184 [14]; EDTA + chlorhexidine HCl): 6.25 µg/mL; Chlorhexidine HCl biofilm eradication concentration in combination (FBEC) (Proteus mirabilis ON153 [15]; EDTA + chlorhexidine HCl): 3.125 µg/mL; Chlorhexidine HCl biofilm eradication concentration in combination (FBEC) (Escherichia coli SK2 [16]; EDTA + chlorhexidine HCl): 3.125 µg/mL
